Experimental findings from PubChem BioAssay AID248 (DTP/NCI, 2004) are described below.

SMILES strings stand for the structures. Several values for one entry are separate records, joined by “and”; a condition that tells them apart may be missing. Equal entries are not always repeated. Toxic doses and inconclusive results are not listed.

This experiment has as its system L1210 leukemia ip in BDF1 mice, survival T/C. The experiment can be described thus: NCI In Vivo Anticancer Drug Screen. Data for tumor model L1210 Leukemia (intraperitoneal) in B6D2F1 (BDF1) mice. The settings on record: endpoint: mean survival time, higher = longer survival. The method, boiled down: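 Value reflects the ratio of survival in compound-treated mice to survival in vehicle-treated controls, with both groups carrying the same transplanted tumor.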

Setting [1] is: dose: 100.0 mg/kg/injection, schedule: Q04DX003 (ip), vehicle: saline with Tween-80.
Setting [2] is: dose: 200.0 mg/kg/injection, schedule: Q04DX003 (ip), vehicle: saline with Tween-80.
The mark [3] stands for this setting: dose: 400.0 mg/kg/injection, schedule: Q04DX003 (ip), vehicle: saline with Tween-80.
Setting [4] is: dose: 100.0 mg/kg/injection, schedule: Q04DX003 (ip), vehicle: Klucel (hydroxypropylcellulose) (HPC).
Setting [5] is: dose: 200.0 mg/kg/injection, schedule: Q04DX003 (ip), vehicle: Klucel (hydroxypropylcellulose) (HPC).
Setting [6] is: dose: 400.0 mg/kg/injection, schedule: Q04DX003 (ip), vehicle: Klucel (hydroxypropylcellulose) (HPC).
Setting [7] is: dose: 25.0 mg/kg/injection, schedule: Q04DX002 (ip), vehicle: saline with Tween-80.
The mark [8] stands for this setting: dose: 50.0 mg/kg/injection, schedule: Q04DX002 (ip), vehicle: saline with Tween-80.
The mark [9] stands for this setting: dose: 100.0 mg/kg/injection, schedule: Q04DX002 (ip), vehicle: Klucel (hydroxypropylcellulose) (HPC).

In the case of `O=C(Nc1ccccc1)Nc1ccc(C(=O)CCl)cc1`, the T/C (dose: 100.0 mg/kg/injection, schedule: Q01DX005 (ip), vehicle: saline with Tween-80) was 96 % of control; the T/C under setting [1] is 102 % of control; the T/C (dose: 200.0 mg/kg/injection, schedule: Q01DX005 (ip), vehicle: saline with Tween-80) was 110 % of control; the T/C under setting [2] was 112 % of control; the T/C (dose: 400.0 mg/kg/injection, schedule: Q01DX005 (ip), vehicle: saline with Tween-80) is 92 % of control; the T/C under setting [3] was 100 % of control.

`CCOC(=O)C1=C(C)NC(C)=C(C(=O)OCC)C1C`: the T/C was 111 % of control (dose: 100.0 mg/kg/injection, schedule: Q01DX001 (ip), vehicle: carboxymethylcellulose (CMC)); 116 % of control (dose: 200.0 mg/kg/injection, schedule: Q01DX001 (ip), vehicle: carboxymethylcellulose (CMC)); 106 % of control (dose: 400.0 mg/kg/injection, schedule: Q01DX001 (ip), vehicle: carboxymethylcellulose (CMC)).

On to `O=C(N/N=C/C=C\c1ccccc1)C(=O)N/N=C/C=C/c1ccccc1`, for which the T/C by setting is: under setting [4], 94 % of control; under setting [5], 89 % of control; under setting [6], 94 % of control.

As for `CCC(=O)C(CC)c1ccc(OC)cc1OC` (stereo not given), the T/C was 93 % of control (dose: 100.0 mg/kg/injection, schedule: Q01DX009 (ip), vehicle: Klucel (hydroxypropylcellulose) (HPC)); 103 % of control under setting [4]; 95 % of control (dose: 200.0 mg/kg/injection, schedule: Q01DX009 (ip), vehicle: Klucel (hydroxypropylcellulose) (HPC)); 101 % of control under setting [5]; 98 % of control (dose: 400.0 mg/kg/injection, schedule: Q01DX009 (ip), vehicle: Klucel (hydroxypropylcellulose) (HPC)); 103 % of control under setting [6].

Turning to `O=NN(Cc1cnc2[nH]c(=O)[nH]c(=O)c2n1)c1ccc(C(=O)NC(CCC(=O)O)C(=O)O)cc1` (stereo not given), the T/C runs as follows: (dose: 3.13 mg/kg/injection, schedule: Q01DX009 (ip), vehicle: water) 100 % of control; (dose: 6.25 mg/kg/injection, schedule: Q01DX009 (ip), vehicle: water) 102 % of control; (dose: 12.5 mg/kg/injection, schedule: Q01DX009 (ip), vehicle: water) 88 % of control; (dose: 25.0 mg/kg/injection, schedule: Q01DX009 (ip), vehicle: water) 98 % of control; (dose: 50.0 mg/kg/injection, schedule: Q01DX009 (ip), vehicle: water) 93 % of control.

Consider `CNc1nc(Nc2ccc(C3=NCCN3)cc2)nc(Nc2ccc(C3=NCCN3)cc2)n1`, for which the T/C was 96 % of control (dose: 1.25 mg/kg/injection, schedule: Q01DX015 (ip), vehicle: water); 96 % of control (dose: 2.5 mg/kg/injection, schedule: Q01DX015 (ip), vehicle: water); 105 % of control (dose: 5.0 mg/kg/injection, schedule: Q01DX015 (ip), vehicle: water); 152 % of control (dose: 7.5 mg/kg/injection, schedule: Q01DX015 (ip), vehicle: water); 102 % of control (dose: 10.0 mg/kg/injection, schedule: Q01DX015 (ip), vehicle: water); 105 % of control (dose: 12.5 mg/kg/injection, schedule: Q01DX001 (ip), vehicle: water). The T/C reads like this: (dose: 13.3 mg/kg/injection, schedule: Q01DX Z (ip), vehicle: saline) 115 % of control; (dose: 15.0 mg/kg/injection, schedule: Q01DX015 (ip), vehicle: water) 106 % of control; (dose: 20.0 mg/kg/injection, schedule: Q01DX Z (ip), vehicle: saline) 121 % of control; (dose: 25.0 mg/kg/injection, schedule: Q01DX001 (ip), vehicle: water) 103 % of control; (dose: 30.0 mg/kg/injection, schedule: Q01DX015 (ip), vehicle: water) 121 % of control; (dose: 50.0 mg/kg/injection, schedule: Q01DX001 (ip), vehicle: water) 100 % of control. Besides, the T/C was 105 % of control (dose: 60.0 mg/kg/injection, schedule: Q01DX Z (oral), vehicle: carboxymethylcellulose (CMC)); 115 % of control (dose: 75.0 mg/kg/injection, schedule: Q01DX001 (ip), vehicle: water); 109 % of control (dose: 120.0 mg/kg/injection, schedule: Q01DX Z (oral), vehicle: carboxymethylcellulose (CMC)); 96 % of control (dose: 240.0 mg/kg/injection, schedule: Q01DX Z (oral), vehicle: carboxymethylcellulose (CMC)); 100 % of control (dose: 480.0 mg/kg/injection, schedule: Q01DX Z (oral), vehicle: carboxymethylcellulose (CMC)).

As for `S=P(S)(Oc1ccc(Cl)cc1Cl)Oc1ccc(Cl)cc1Cl.[Cd]`, the T/C is, setting by setting: under setting [7], 89 % of control; under setting [8], 92 % of control; (dose: 100.0 mg/kg/injection, schedule: Q04DX002 (ip), vehicle: saline with Tween-80) 123 % of control.

As for `CCCCCCCC(=O)N1CCCC1C(=O)NCCCCC(=O)O` (stereo not given), the T/C runs as follows: (dose: 25.0 mg/kg/injection, schedule: Q01DX001 (ip), vehicle: saline) 95 % of control; (dose: 50.0 mg/kg/injection, schedule: Q01DX001 (ip), vehicle: saline) 98 % of control; (dose: 100.0 mg/kg/injection, schedule: Q01DX001 (ip), vehicle: saline) 95 % of control.

Take `Clc1ccc(Cl)c(N=Cc2ccc3c(c2)OCO3)c1`: the T/C is 92 % of control (dose: 100.0 mg/kg/injection, schedule: Q04DX003 (ip), vehicle: saline); 95 % of control (dose: 200.0 mg/kg/injection, schedule: Q04DX003 (ip), vehicle: saline); 92 % of control (dose: 400.0 mg/kg/injection, schedule: Q04DX003 (ip), vehicle: saline).

As for `CC(=O)Nc1ccc(OCCOC(=O)Nc2c(C)cccc2C)cc1`, the T/C is 87 % of control (dose: 100.0 mg/kg/injection, schedule: Q01DX009 (ip), vehicle: saline with Tween-80); 92 % of control (dose: 200.0 mg/kg/injection, schedule: Q01DX009 (ip), vehicle: saline with Tween-80); 94 % of control (dose: 400.0 mg/kg/injection, schedule: Q01DX009 (ip), vehicle: saline with Tween-80).

Consider `O=S(=O)(C#Cc1ccccc1)c1ccccc1`, for which the T/C under setting [9] was 89 % of control.

Take `O=C(O)c1cc2c3c(c1)CCCN3CCC2`: the T/C (dose: 50.0 mg/kg/injection, schedule: Q04DX003 (ip), vehicle: saline with Tween-80) is 100 % of control; the T/C under setting [1] is 100 % of control; the T/C under setting [2] is 102 % of control; the T/C under setting [3] is 91 % of control.

On to `CC1C(=O)C2C1CS2(=O)=O` (stereo not given), for which the T/C is 97 % of control (dose: 100.0 mg/kg/injection, schedule: Q04DX002 (ip), vehicle: DMSO); 97 % of control (dose: 200.0 mg/kg/injection, schedule: Q04DX002 (ip), vehicle: DMSO); 91 % of control (dose: 400.0 mg/kg/injection, schedule: Q04DX002 (ip), vehicle: DMSO).

Consider `CN(C)c1ccccc1C(=O)N/N=C\c1ccc(-c2ccccc2)cc1`, for which the T/C runs as follows: under setting [9], 87 % of control; (dose: 200.0 mg/kg/injection, schedule: Q04DX002 (ip), vehicle: Klucel (hydroxypropylcellulose) (HPC)) 100 % of control; (dose: 400.0 mg/kg/injection, schedule: Q04DX002 (ip), vehicle: Klucel (hydroxypropylcellulose) (HPC)) 117 % of control.

Take `CCC(C)C(CCN(CC)CC)(CNC(=O)CN(CC)CC)c1cccc2ccccc12` (stereo not given): the T/C (dose: 100.0 mg/kg/injection, schedule: Q01DX009 (ip), vehicle: saline) is 97 % of control.

As to `COc1ccccc1/C=C/C(=O)N1CCC2(CC1)C(=O)N(C)CN2c1ccccc1`, the T/C is 96 % of control (dose: 75.0 mg/kg/injection, schedule: Q04DX003 (ip), vehicle: Klucel (hydroxypropylcellulose) (HPC)); 86 % of control (dose: 150.0 mg/kg/injection, schedule: Q04DX003 (ip), vehicle: Klucel (hydroxypropylcellulose) (HPC)); 91 % of control (dose: 300.0 mg/kg/injection, schedule: Q04DX003 (ip), vehicle: Klucel (hydroxypropylcellulose) (HPC)).

Turning to `C[OH+]c1ccccc1C(=O)O.C[OH+]c1ccccc1C(=O)O.[Ni]`, the T/C was 97 % of control and 103 % of control under setting [7]; 100 % of control and 107 % of control under setting [8]; 120 % of control and 90 % of control (dose: 200.0 mg/kg/injection, schedule: Q04DX002 (ip), vehicle: saline with Tween-80).
